Several values for one entry are separate records, joined by “and”; a condition that tells them apart may be missing. Identical values can stand only once. Entries after “also recorded” stand apart in the source; their conditions may differ. Like-named read-outs stand apart in the source and are kept apart here. One block for each compound: values may come before it.
Columns and labels:
[1] = biological target: T1, 31-O-desmethylimmunomycin O-methyltransferase (DIMT) (Streptomyces hygroscopicus, UniProt Q9KID5); assay: S-adenosyl-L-methionine:31-O-desmethylimmunomycin O-methyltransferase (DIMT) assay; assay type: biochemical, Streptomyces hygroscopicus var. ascomyceticus; conditions: for inhibition of DIMT activity: result in words
T1 construct: about 32 kDa; monomer by gel filtration
T1 sequence (Q9KID5 1-260): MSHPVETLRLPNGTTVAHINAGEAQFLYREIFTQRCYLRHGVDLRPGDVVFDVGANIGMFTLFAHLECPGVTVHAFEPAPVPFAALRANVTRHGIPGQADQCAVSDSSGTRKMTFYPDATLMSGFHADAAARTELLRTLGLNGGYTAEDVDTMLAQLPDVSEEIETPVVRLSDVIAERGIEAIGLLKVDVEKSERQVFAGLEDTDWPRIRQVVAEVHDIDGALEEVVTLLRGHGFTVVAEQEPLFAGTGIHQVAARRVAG
Description: The assay was carried out in 1 ml. mixture containing 0.025 mM 31-desmethylimmunomycin, 1 mM MgSO4 and different quantities of the enzyme source in 50 mM phosphate buffer, pH 7.5. Reaction was initiated by the addition of 1 nmole of ^14 C-SAM (S-adenosyl-L-[methyl-^14 C] methionine with the specific activity of 46 mCi/mmole. Incubation of the complete mixture was carried out at 34° C. for 20 minutes and the reaction was terminated by the addition of ethyl acetate. Product of the reaction was extracted with 2 ml of ethyl acetate and 1 ml of the extract was used for TLC and HPLC analysis. For the analysis of the radioactive reaction product (immunomycin), the ethyl acetate extract was spiked with the standard immunomycin and subjected to the TLC with a plate having plastic support. The plastic sheet was developed in chloroform:methanol (9:1) and area showing standard immunomycin under UV-light was cut and the radioactivity in the cut-strip was measured. The amount of the product formed was calculated from the measured radioactivity. For the HPLC analysis of the product of the enzyme reaction, several enzymatic reaction mixtures were pooled and the extract was subjected to the TLC analysis as above. The area on the silica gel plate showing the band having an Rf value identical with the standard immunomycin was scraped and eluted with ethyl acetate. The ethyl acetate extract was washed with water, dried under nitrogen and the residue was subjected to the HPLC analysis on Partisil 5-ODS-3 column with acetonitrile:water:phosphoric acid (65:35:0.1) as the eluting solvent. One milliliter fractions were collected and a portion of each fraction was examined for the radioactivity.
Examination of the optimal temperature, pH and metal requirement of the DIMT activity was carried out on the enzyme preparation obtained from DEAE-Sepharose column. For kinetic analysis, a preparation which had been purified through a second MonoQ column chromatography was utilized.

[2] = tested on: mouse T lymphocytes stimulated with ionomycin plus PMA; assay: T-cell proliferation assay (ionomycin plus PMA induced T-cell stimulation); assay type: cell-based
Description: The principle of this assay, as described in J. Immunology, Vol. 144, pp. 251-258 (1990) by F. Dumont et al, is to measure the proliferation of mouse T lymphocytes stimulated with the combination of ionomycin plus PMA. A positive sample e.g. FK-506, in this assay will inhibit T-cell proliferation, as indicated by reduced tritiated thymidine uptake.
Purified Compound I, as prepared by HPLC above, was dissolved in absolute ethanol at 1 mg/ml.
Spleens from C57B1/6 mice were taken under sterile conditions and gently dissociated in ice-cold RPMI 1640 culture medium (GIBCO, Grand Island, N.Y.) supplemented with 10% heat-inactivated fetal calf serum (GIBCO). Cells were pelleted by centrifugation at 1500 rpm for 8 minutes. Contaminating red cells were removed by treating the pellet with ammonium chloride lysing buffer (GIBCO) for 2 minutes at 4° C. Cold medium was added and cells were again centrifuged at 1500 rpm for 8 minutes. T lymphocytes were then isolated by separation of the cell suspension on nylon wool columns as follows: Nylon wool columns were prepared by packing approximately 4 grams of washed and dried nylon wool into 20 ml plastic syringes. The columns were sterilized by autoclaving at 250° F. for 30 minutes. Nylon wool columns were wetted with warm (37° C.) culture medium and rinsed with the same medium. Washed spleen cells resuspended in warm medium were slowly applied to the nylon wool. The columns were then incubated in an upright position at 37° C. for 1 hour. Non-adherent T lymphocytes were eluted from the columns with warm culture medium and the cell suspensions were spun as above.
Purified T lymphocytes were resuspended at 2.5×10^5 cells/ml in complete culture medium composed of RPMI 1640 medium with 10% heat-inactivated fetal calf serum, […], 1 mM sodium pyruvate, 2×10^-5 M 2-mercaptoethanol and 50 μg/ml gentamycin. Ionomycin was added at 250 ng/ml and PMA at 10 ng/ml. The cell suspension was immediately distributed into 96 well flat-bottom microculture plates (Costar) at 200 μl/well. The control, being the medium without test drug, and various below-indicated dilutions of the sample (above-describedpurified Compound I) to be tested were then added in triplicate wells at 20 μl/well. FR-900506 was used as a standard. The culture plates were then incubated at 37° C. in a humidified atmosphere of 5% CO2 -95% air for 44 hours. The proliferation of T lymphocytes was assessed by measurement of tritiated thymidine incorporation. After 44 hours of culturing, the cells were pulse-labelled with 2 μCi/well of tritiated thymidine (NEN, Cambridge, Mass.). After another 4 hours of incubation, cultures were harvested on glass fiber filters using a multiple sample harvester. Radioactivity of filter discs corresponding to individual wells was measured by standard liquid scintillation counting methods (Betacounter). Mean counts per minute of replicate wells were calculated and the results expressed as percent inhibition of tritiated thymidine uptake (proliferation) as follows: [formula]
1. Mouse T cell cultures were pulsed with ^3 H-thymidine for 4 hours prior to harvesting at 48 hours.

[3] = Physical characteristics of Compound I; assay type: physicochemical; conditions: methanol
[4] = reputed, EPO Publication No. 0184162; cited from earlier work
[5] = Mus musculus, T-lymphocyte, Example 3, HPLC purified samples, same set of experiments, read-out: IC50, biological activity

Compound: CC[C@@H]1/C=C(\C)C[C@H](C)C[C@H](OC)[C@H]2O[C@@](O)(C(=O)C(=O)N3CCCC[C@H]3C(=O)O[C@H](/C(C)=C/[C@@H]3CC[C@@H](O)[C@H](O)C3)[C@H](C)[C@@H](O)CC1=O)[C@H](C)C[C@@H]2OC [31-O-desmethylimmunomycin]
apparent Vmax of DIMT ([1]; 31-O-desmethylimmunomycin variable substrate, 40 uM SAM, Lineweaver-Burk): 45.5 nmol/h/mg

Compound: CC[C@@H]1C=C2COC1(O)C[C@H](O)[C@@H](C)[C@@H](/C(C)=C/[C@@H]1CC[C@@H](O)[C@H](OC)C1)OC(=O)[C@@H]1CCCCN1C(=O)C(=O)[C@]1(O)O[C@H]([C@@H](OC)C[C@@H](C)C2)[C@@H](OC)C[C@H]1C [Compound II]
IC50 [2, 5]: ~6 nM
activity in the T-cell proliferation assay ([2]; result in words): positive inhibition of T-cell activation; also recorded: positive results

Solubility [3]: Solubility in methanol
Compound: CC[C@@H]1C=C2COC1(O)C[C@H](O)[C@@H](C)[C@@H](/C(C)=C/[C@@H]1CC[C@@H](O)[C@H](O)C1)OC(=O)[C@@H]1CCCCN1C(=O)C(=O)[C@]1(O)O[C@H]([C@@H](OC)C[C@@H](C)C2)[C@@H](OC)C[C@H]1C [Compound I]
effect of IL-2 on the inhibition of T-cell proliferation ([2]; 50 units/ml recombinant IL-2 added at the initiation of culture): reversed
inhibition at 0.0025 µM ([2]; Mus musculus, T-lymphocyte, 2.5 nM, splenic T-cells, ionomycin + PMA, 48 hours, read-out: Percent of Inhibition of tritiated thymidine uptake (proliferation)): 0%
inhibition at 0.0049 µM ([2]; Mus musculus, T-lymphocyte, 4.9 nM, splenic T-cells, ionomycin + PMA, 48 hours, read-out: Percent of Inhibition of tritiated thymidine uptake (proliferation)): 0%
inhibition at 0.0099 µM ([2]; Mus musculus, T-lymphocyte, 9.9 nM, splenic T-cells, ionomycin + PMA, 48 hours, read-out: Percent of Inhibition of tritiated thymidine uptake (proliferation)): 39%
inhibition at 0.0197 µM ([2]; Mus musculus, T-lymphocyte, 19.7 nM, splenic T-cells, ionomycin + PMA, 48 hours, read-out: Percent of Inhibition of tritiated thymidine uptake (proliferation)): 65%
inhibition at 0.0394 µM ([2]; Mus musculus, T-lymphocyte, 39.4 nM, splenic T-cells, ionomycin + PMA, 48 hours, read-out: Percent of Inhibition of tritiated thymidine uptake (proliferation)): 89%
inhibition at 0.0788 µM ([2]; Mus musculus, T-lymphocyte, 78.8 nM, splenic T-cells, ionomycin + PMA, 48 hours, read-out: Percent of Inhibition of tritiated thymidine uptake (proliferation)): 95%
inhibition at 0.1576 µM ([2]; Mus musculus, T-lymphocyte, 157.6 nM, splenic T-cells, ionomycin + PMA, 48 hours, read-out: Percent of Inhibition of tritiated thymidine uptake (proliferation)): 98%
inhibition at 0.3152 µM ([2]; Mus musculus, T-lymphocyte, 315.2 nM, splenic T-cells, ionomycin + PMA, 48 hours, read-out: Percent of Inhibition of tritiated thymidine uptake (proliferation)): 98%
IC50 [2, 5]: ~11 nM
IC50 ([2]; Mus musculus, T-lymphocyte, Example 4, table notes, read-out: IC50): 0.0115 µg/mL and 14.5 nM
IC50 ([2]; Mus musculus, T-lymphocyte, generally in the range, read-out: IC50, general range): 10 to 18 nM

Compound: O=C(O)CN(CCN(CC(=O)O)CC(=O)O)CC(=O)O [EDTA]
inhibition of DIMT activity [1]: completely inhibited; also recorded: major inhibition

Compound: C=CC[C@@H]1/C=C(\C)C[C@H](C)C[C@H](OC)[C@H]2O[C@@](O)(C(=O)C(=O)N3CCCC[C@H]3C(=O)O[C@H](/C(C)=C/[C@@H]3CC[C@@H](O)[C@H](OC)C3)[C@H](C)[C@@H](O)CC1=O)[C@H](C)C[C@@H]2OC [FR-900506, reference compound]
inhibition at 0.01 µg/mL ([2]; Mus musculus, T-lymphocyte, read-out: inhibition of T-cell proliferation by the standard): 99%
times more effective than cyclosporin [4]: 100 times

Compound: CC[C@@H]1/C=C(\C)C[C@H](C)C[C@H](OC)[C@H]2O[C@@](O)(C(=O)C(=O)N3CCCC[C@H]3C(=O)O[C@H](/C(C)=C/[C@@H]3CC[C@@H](O)[C@H](OC)C3)[C@H](C)[C@@H](O)CC1=O)[C@H](C)C[C@@H]2OC [FR-900520, 17-Ethyl-1,14-dihydroxy-12-[2-(4-hydroxy-3-methoxycyclohexyl)-1-methylvinyl]-23-25-dimethoxy-13,19,21,27-tetramethyl-11,28-dioxa-4-azatricyclo [22.3.1.0^4,9]octacos-18-ene-2,3,10,16-tetraone]
IC50 [2, 5]: ~1 nM

inhibition of DIMT activity [1]: major inhibition
Compound: Nc1ncnc2c1ncn2[C@@H]1O[C@H](CSCC[C@H](N)C(=O)O)[C@@H](O)[C@H]1O [S-adenosyl-homocysteine (SAH), S-adenosyl-homocysteine]

Compound: N.N.O=S(=O)(O)O [ammonium sulfate]
inhibition of DIMT activity [1]: inhibited

inhibition of DIMT activity [1]: major inhibition
Compound: Nc1ncnc2c1ncn2[C@@H]1O[C@H](C[C@@H](N)CC[C@H](N)C(=O)O)[C@@H](O)[C@H]1O [sinefungin]

From patent US5149701A, “C-31 methylated FR-900520 cyclic hemiketal immunosuppressant agents” (Merck & Co., Inc., priority 1991, dated 1992)
